Measured values from article PMC10049354, “Anti-Inflammatory Effects and Photo- and Neuro-Protective Properties of BIO203, a New Amide Conjugate of Norbixin, in Development for the Treatment of Age-Related Macular Degeneration (AMD)” (International Journal of Molecular Sciences, 2023).

Key:
IL-8 = system: IL-8; set-up: method as in PMID 34544906; conditions: norbixin at 20 mM (so in the source); cited from earlier work
IL-6 [1] = system: IL-6; set-up: method as in PMID 34544906; conditions: norbixin at 20 mM (so in the source); cited from earlier work
RXR = system: RXR; set-up: method as in PMID 34544906; conditions: porcine RPE cells in vitro; cited from earlier work
[2] = system: albino rats exposed to blue-light-induced photoreceptor degeneration; set-up: method as in PMID 27992460; conditions: IP; cited from earlier work
IL-6 [3] = experiment: IL-6 mRNA expression induced by A2E (quantitative RT-PCR); assay type: cell-based, pig
Procedure: RPE cells were obtained from pig eyes, as previously described. RPE cells were seeded on a 96-well plate at a density of 1.5 × 10^5 cells/cm^2 in DMEM 2% FCS. BIO201, BIO203, or its pure enantiomers were added in increasing concentrations to the culture medium 48 h before illumination. A2E was added to the medium at a final concentration of 30 μM, and 19 h later, blue-light illumination was performed for 50 min using a 96 blue-led device (Durand, St Clair de la Tour, France) emitting at 470 nm (1440 mcd, 8.6 mA). Just before illumination, the culture medium was replaced by a modified DMEM without any photosensitizer and with 2% FCS. Twenty-four hours after blue-light irradiation, all cell nuclei were stained with Hoechst 33342, and nuclei of dead cells with ethidium homodimer 2, fixed with paraformaldehyde (4% in PBS, 10 min) and 9 pictures per well were captured using a fluorescence microscope (Nikon TiE) equipped with a CoolSNAP HQ2 camera and driven by Metamorph Premier On-Line program. Quantification of live cells was performed using Metamorph Premier Off-Line and a homemade program by subtraction of dead cells from all cells. For cytokines mRNA analysis, RPE cells were seeded in 24-well plates and left untreated or treated with A2E or BIO203 alone or A2E plus BIO203. […]

NF-κB = NF-κB transactivation assay induced by A2E; assay type: cell-based, pig; conditions: compound 20 μM; A2E 20 μM; p < 0.05
Procedure: Transactivation assays were performed as previously described. Briefly, RPE cells were plated in DMEM 2% FCS at a density of 6 × 10^4 cells/cm^2. The next day transfections using the Cignal Reporter Assay Kits for PPAR, RXR, AP-1, and NF-κB were performed with Lipofectamine and Plus Reagent in serum-free medium. Three hours after the transfection, A2E and/or BIO203, both at 20 μM, were added to the culture medium for 24 h. Luciferase activity was measured using the Dual-Luciferase Reporter Assay System and with a luminometer (Infinite M1000 from Tecan, Mannedorf, Switzerland). At least 3 independent transfections were performed in triplicate for each condition.

Abca4−/− Rdh8−/− mice = experiment: ERG after 6 months of oral complementation in Abca4−/− Rdh8−/− mice; assay type: in vivo, mouse
Procedure: The ERG in rats was performed using the electrophysiological system RETI-animal® from Roland Consult. ERG was recorded on both eyes from overnight dark-adapted animals. Rats were anesthetized by an intramuscular injection of a mix of Rompun® (xylazine)/Imalgene® (ketamine) before ERG measurement. Ten to fifteen minutes before measurement, one drop of Mydriaticum® (0.5% tropicamide) was instilled for pupillary dilatation. The A-wave and B-wave implicit times (ms) and amplitudes (µV) were measured for each ERG. The B-wave amplitude (value and %) was given as informative data. ERG parameters: Ganzfeld Q450C, Color: white maximum, Maximum intensity: 3 cd/m^2 (0 dB); Duration 0.24 ms; number of flashes: 1, Filter: 50 Hz, Impedance threshold: 50 kΩ. For scotopic ERGs, the A-wave amplitudes were measured from the baseline to the peak of the negative potential, whereas B-wave amplitudes were measured from the trough of the A-wave to the peak of the positive potential. The recordings obtained from these analyses were tabulated and normalized (%) for each eye. Group means, standard deviation, and median values were calculated, considering each eye from one animal as a separate value. ERG recordings in mice were performed as previously described.
A custom rodent diet was formulated and irradiated (25 kGy) by Envigo RMS SARL (Gannat, France). Low dose (LD)-BIO203 (50 μg/g) and high dose (HD)-BIO203 (500 μg/g) were incorporated into Teklad Custom Research Diet 2016© pellets. The pellets were stored at −20 °C until use and were administered ad libitum as the standard Teklad Global Rodent Diet 2016© used for the control group. The concentration of BIO203 in the customized pellets at the end of each batch was determined by HPLC MS/MS. The mean concentration was 46 μg/g ± 3.5 μg/g of pellet for the LD and 464 μg/g ± 24.3 μg/g of pellet for the HD. We calculated that in the LD group, male mice weighing 31.63 g after 2 months of complementation consumed 4.16 g of pellets, and in the HD group, male mice weighing 34.11 g after 2 months of complementation consumed 4.11 g of pellets every day, which correspond to a daily dose of 6.04 ± 0.46 mg/kg for the LD-BIO203 pellets and 55.91 ± 2.93 mg/kg for the HD-BIO203 pellets.
To test the preventive/curative action of oral administration of BIO203 against retinal neurodegeneration, a total of 27 Pigmented Abca4^−/− Rdh8^−/− mice carrying the Rpe65-Leu450 mutation and the rd8 mutation in the Crb1 gene from Case Western Reserve University of eleven to twelve months of age were used. […] After 6 months of complementation, ERG was measured in both eyes. […] In each group, half of the eyes were removed for A2E and BIO203 measurements, and half of the eyes were used for histological analyses and photoreceptor layer quantification.

SMILES	effect on IL-8 mRNA expression (IL-8)	effect on IL-6 mRNA expression (IL-6 [1])	inhibition of RXR transactivation induced by A2E (RXR)	lowest dose giving the maximal retinal neuroprotection and optimal preservation of visual functions [2] [mg/kg]	change of IL-6 mRNA expression induced by A2E (IL-6 [3]; BIO203 20 mM (so in the source), A2E 20 μM, porcine RPE cells, p < 0.001) [%]	effect on IL-6 expression on its own (without A2E) (IL-6 [3]; BIO203 alone, not statistically significant)	change of NF-κB transactivation induced by A2E (NF-κB) [%]	photopic B wave ERG compared with control pellets (Abca4−/− Rdh8−/− mice; HD pellets)	scotopic A wave ERG compared with control pellets (Abca4−/− Rdh8−/− mice; HD pellets, flash intensities 1 and 10 cd.s/m^2, p < 0.05)	scotopic B wave ERG compared with control pellets (Abca4−/− Rdh8−/− mice; HD pellets, flash intensity 30 cd.s/m^2, p < 0.05)	effect on the visual function (ERG) (Abca4−/− Rdh8−/− mice; LD pellets)
CC(=C/C=C/C(C)=C/C=C/C=C(C)/C=C/C=C(C)/C=C/C(=O)O)/C=C/C(=O)O [norbixin, 9′-cis-norbixin]	significantly reduced	significantly reduced	significantly inhibited	50	–	–	–	–	–	–	–
COC1CCCN(C(=O)/C=C/C(C)=C/C=C/C(C)=C/C=C/C=C(C)/C=C/C=C(C)\C=C\C(=O)O)C1 (centres unmarked) [BIO203]	–	–	–	–	−104.8	slightly inhibited	−69.4	no significant difference	significantly superior	reduced the loss	No effect
